Patent US8722849B2, “Polypeptides” (Novo Nordisk A/S, priority 2011, dated 2014)
Converted amounts (≈) assume the structure as drawn. Like-named read-outs stand apart in the source and are kept apart here. Starred links: 1 amine or outer side, 2 acyl side, 3 side chain; linkers in the order of their positions; H or OH if unused. Positions of bridges follow the written chain, without caps; N, C: chain ends. Residues, ends and D or L forms follow the SMILES beside them. *: point of attachment. C20 diacid = O=C(O)CCCCCCCCCCCCCCCCCCC(=O)*; γGlu = O=C(O)[C@H](CCC(=O)[*:2])N[*:1]

Legend:
[1] = Assay (III) ThT fibrillation assay for physical stability; format: physicochemical; conditions: ThT fibrillation assay
Outline: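 Freshly prepared formulations, pH-adjusted, with 1 μM ThT; four or eight replicates incubated at 37 °C under 960 rpm orbital shaking. Fluorescence (ex 444/em 485 nm) read every 20 min; […]. Peptide concentration measured by RP-HPLC before and after the run.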

[2] = Assay (IV) determination of solubility; format: physicochemical
Outline: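 Eight 100 mM buffers (glycylglycine pH 3.0–5.0, bistrispropane pH 6.0–8.0) each received an equal volume of polypeptide dissolved in water at ~500 nmol/ml. Soluble polypeptide was measured by HPLC following 18 hours at room temperature and centrifugation.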

[3] = biological target: T1, human calcitonin receptor (Homo sapiens, UniProt P30988); test: Assay (II)a functional CRE-luciferase assay, human calcitonin receptor; format: cell-based; conditions: Table 7; human calcitonin (CTa) receptor
T1 construct: expressed in transfected cells; host or cells: BHK570
T1 sequence (P30988 25-474): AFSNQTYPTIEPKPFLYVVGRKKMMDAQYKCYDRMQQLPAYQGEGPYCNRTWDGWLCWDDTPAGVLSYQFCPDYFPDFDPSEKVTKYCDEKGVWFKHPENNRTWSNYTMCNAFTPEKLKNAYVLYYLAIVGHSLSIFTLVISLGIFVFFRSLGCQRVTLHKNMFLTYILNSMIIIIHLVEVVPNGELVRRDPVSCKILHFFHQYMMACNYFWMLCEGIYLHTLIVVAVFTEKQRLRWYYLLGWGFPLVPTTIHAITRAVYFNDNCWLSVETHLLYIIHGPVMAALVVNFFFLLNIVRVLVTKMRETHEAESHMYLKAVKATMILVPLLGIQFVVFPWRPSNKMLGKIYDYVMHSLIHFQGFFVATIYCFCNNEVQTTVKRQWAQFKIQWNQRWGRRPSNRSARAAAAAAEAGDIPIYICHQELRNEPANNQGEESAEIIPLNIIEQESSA

[4] = biological target: T2, human amylin receptor (amylin 3(a) receptor: human calcitonin receptor + RAMP-3) (Homo sapiens, UniProt O60896+P30988); test: Assay (II)a functional CRE-luciferase assay, human amylin receptor; format: cell-based; conditions: Table 2; BHK amylin 3(a)-receptor/CRE-luc cells
T2 construct: expressed in transfected cells; host or cells: BHK570
T2 sequence (P30988 25-474): T1 sequence (P30988 25-474)
T2 sequence (O60896 24-148 partner): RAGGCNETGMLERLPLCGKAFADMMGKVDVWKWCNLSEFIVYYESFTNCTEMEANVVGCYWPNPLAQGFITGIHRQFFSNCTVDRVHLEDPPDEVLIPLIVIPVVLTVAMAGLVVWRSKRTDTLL

[5] = bistrispropane buffer, pH 6, pH 6.0, read-out: Solubility pH 6.0
[6] = bistrispropane buffer, pH 6.5, pH 6.5, read-out: Solubility pH 6.5
[7] = bistrispropane buffer, pH 7, pH 7.0, read-out: Solubility pH 7.0
[8] = bistrispropane buffer, pH 7.5, pH 7.5, read-out: Solubility pH 7.5
[9] = bistrispropane buffer, pH 8, pH 8.0, read-out: Solubility pH 8.0
[10] = glycylglycine buffer, pH 3, pH 3.0, read-out: Solubility pH 3.0
[11] = glycylglycine buffer, pH 4, pH 4.0, 18 hours at room temperature, Table 2, read-out: Solubility pH 4.0
[12] = glycylglycine buffer, pH 4, pH 4.0, read-out: Solubility pH 4.0
[13] = glycylglycine buffer, pH 5, pH 5.0, read-out: Solubility pH 5.0

| ThT pH 4.0 lag time (h) [1] [h] | solubility at 18 h [2, 5] [µM] | solubility at 18 h [2, 6] [µM] | solubility at 18 h [2, 7] [µM] | solubility at 18 h [2, 8] [µM] | solubility at 18 h [2, 9] [µM] | solubility at 18 h [2, 10] [µM] | solubility at 18 h [2, 11] [µM] | solubility at 18 h [2, 12] [µM] | solubility at 18 h [2, 13] [µM] | EC50 [3] [nM] | EC50 [4] [nM] | ThT pH 4.0 lag time [1] [h] | SMILES |
| --- | --- | --- | --- | --- | --- | --- | --- | --- | --- | --- | --- | --- | --- |
| 6 | > 200 | 189 (≈ 835 µg/mL) | 91 (≈ 402 µg/mL) | 136 (≈ 601 µg/mL) | > 200 | > 200 | > 200 | > 200 | > 200 | 0.0945 | 0.153 |  | CC(C)C[C@H](NC(=O)[C@H](CCCNC(=N)N)NC(=O)[C@H](CCC(N)=O)NC(=O)[C@@H](NC(=O)[C@H](C)NC(=O)[C@@H]1CSSC[C@H](NC(=O)[C@H](CCCCN)NC(=O)CC[C@H](NC(=O)CCCCCCCCCCCCCCCCCCC(=O)O)C(=O)O)C(=O)N[C@@H](CC(N)=O)C(=O)N[C@@H]([C@@H](C)O)C(=O)N[C@@H](C)C(=O)N[C@@H]([C@@H](C)O)C(=O)N1)[C@@H](C)O)C(=O)N[C@@H](C)C(=O)N[C@@H](CCC(=O)O)C(=O)N[C@@H](Cc1ccccc1)C(=O)N[C@@H](CC(C)C)C(=O)N[C@@H](Cc1c[nH]cn1)C(=O)N[C@@H](Cc1c[nH]cn1)C(=O)N[C@@H](CO)C(=O)N[C@@H](CO)C(=O)N[C@@H](CC(N)=O)C(=O)N[C@@H](CC(N)=O)C(=O)N[C@@H](Cc1ccccc1)C(=O)NCC(=O)N[C@@H](C)C(=O)N1CCC[C@H]1C(=O)N[C@@H](CC(C)C)C(=O)N[C@@H](CO)C(=O)N[C@@H](CO)C(=O)N[C@H](C(=O)N[C@@H](CC(N)=O)C(=O)N[C@H](C(=O)NCC(=O)N[C@@H](CO)C(=O)N[C@@H](Cc1c[nH]cn1)C(=O)N[C@H](C(=O)N[C@@H](Cc1ccc(O)cc1)C(N)=O)[C@@H](C)O)C(C)C)[C@@H](C)O [Example 64, N-alpha-[(S)-4-Carboxy-4-(19-carboxynonadecanoylamino)butyryl]-[Glu14,His17,Ala25,Pro26,Ser28,Ser29,His35]-pramlintide] ({C20 diacid-γGlu}-KCNTATCATQRLAEFLHHSSNNFGAPLSSTNVGSHTY-NH2; disulfide 2-7 (inferred)) |
| >45 | > 200 | 166 (≈ 789 µg/mL) | 15 (≈ 71.3 µg/mL) | 24 (≈ 114 µg/mL) | 60 (≈ 285 µg/mL) | > 200 | > 200 | > 200 | > 200 | 0.115 | 0.0965 | >45 | CC[C@H](C)[C@H](NC(=O)[C@@H]1CCCN1C(=O)CNC(=O)[C@H](Cc1ccccc1)NC(=O)[C@H](CC(N)=O)NC(=O)[C@H](CC(N)=O)NC(=O)[C@H](CO)NC(=O)[C@H](CO)NC(=O)[C@H](Cc1c[nH]cn1)NC(=O)[C@H](Cc1c[nH]cn1)NC(=O)[C@H](CC(C)C)NC(=O)[C@H](Cc1ccccc1)NC(=O)[C@H](CCC(=O)O)NC(=O)[C@H](C)NC(=O)[C@H](CC(C)C)NC(=O)[C@H](CCCNC(=N)N)NC(=O)[C@H](CCC(N)=O)NC(=O)[C@@H](NC(=O)[C@H](C)NC(=O)[C@@H]1CSSC[C@H](NC(=O)[C@H](CCCCN)NC(=O)[C@H](Cc2c[nH]cn2)NC(=O)[C@H](Cc2c[nH]cn2)NC(=O)CC[C@H](NC(=O)CCCCCCCCCCCCCCCCCCC(=O)O)C(=O)O)C(=O)N[C@@H](CC(N)=O)C(=O)N[C@@H]([C@@H](C)O)C(=O)N[C@@H](C)C(=O)N[C@@H]([C@@H](C)O)C(=O)N1)[C@@H](C)O)C(=O)N[C@@H](CC(C)C)C(=O)N1CCC[C@H]1C(=O)N1CCC[C@H]1C(=O)N[C@H](C(=O)N[C@@H](CC(N)=O)C(=O)N[C@H](C(=O)NCC(=O)N[C@@H](CO)C(=O)N[C@@H](Cc1c[nH]cn1)C(=O)N[C@H](C(=O)N[C@@H](Cc1ccc(O)cc1)C(N)=O)[C@@H](C)O)C(C)C)[C@@H](C)O [Example 67, N-alpha-[(S)-4-Carboxy-4-(19-carboxynonadecanoylamino)butyryl]-His-His-[Glu14,His17,His35]-pramlintide] ({C20 diacid-γGlu}-HHKCNTATCATQRLAEFLHHSSNNFGPILPPTNVGSHTY-NH2; disulfide 4-9 (inferred); C-terminus assumed) |
